The values below come from US10654818B2, “Furane derivatives as inhibitors of ATAD2” (BAYER PHARMA AKTIENGESELLSCHAFT, priority 2015, dated 2020).

As usually defined, the IC50 is the concentration that inhibits the measured activity by half.

The target of the assay is T1, recombinant, N-terminally GST-tagged ATAD2 bromodomain amino acids 981-1108 (Homo sapiens, UniProt Q6PL18).
T1 construct: ATAD2 bromodomain amino acids 981-1108; made in house; host or cells: E. coli
T1 sequence (Q6PL18 981-1108): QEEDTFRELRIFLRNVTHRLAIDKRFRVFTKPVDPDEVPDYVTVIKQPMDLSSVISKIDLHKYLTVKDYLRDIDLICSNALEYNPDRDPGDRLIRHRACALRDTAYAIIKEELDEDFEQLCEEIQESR
As to the kind of experiment: TR-FRET assay: disruption of the interaction between ATAD2 and acetylated Histone H4 (Ac-H4) peptide. It is filed as binding. The settings on record: inhibition of ATAD2/Ac-H4 complex formation; 10 nM ATAD2, 50 nM Ac-H4 peptide. The source says: The ability of the compounds described in the present invention to disrupt the interaction between ATAD2 and acetylated Histone H4 (Ac-H4) was used as quantitative measure of their ATAD2-binding affinities.
To this end a TR-FRET assay which detects the binding of an Ac-H4-derived synthetic peptide (purchased from e.g. Biosyntan (Berlin, Germany)) of sequence HSGRGKGGGGKGLGK(Ac)GGAKRHRK-Biotin to recombinant, N-terminally GST-tagged ATAD2 bromodomain amino acids 981-1108. The protein was produced in-house via E. coli expression followed by GSH-Sepharose affinity- and Superdex S200-size exclusion chromatography purification.
Typically, 11 different concentrations of each compound (0.1 nM, 0.33 nM, 1.1 nM, 3.8 nM, 13 nM, 44 nM, 0.15 μM, 0.51 μM, 1.7 μM, 5.9 μM and 20 μM) were tested in duplicate within the same microtiter plate. To this end, 100-fold concentrated compound solutions (in DMSO) were previously prepared with a Precision Pippeting System (BioTek) by serial dilution (1:3.4) of 2 mM stocks in clear, low-volume 384-well microtiter source plates (Greiner Bio-One). Subsequently, 50 nl of compounds were transferred into black, low-volume test plates from the same supplier using a Hummingbird capillary based liquid handling instrument (Digilab). Tests were started by the addition of 2 μl of 2.5-fold concentrated ATAD2 solution (25 nM=10 nM final concentration in the 5 μl assay volume) in aqueous assay buffer [50 mM HEPES pH 7.5, 50 mM potassium fluoride (KF), 100 mM sodium chloride (NaCl), 0.25 mM CHAPS, 0.05% bovine serum albumine (BSA) and 1 mM dithiothreitol (DTT)] to the compounds in the test plate with a Multidrop dispenser (Thermo-Fisher). Test plates were then incubated 10′ at 22° C., in order to allow pre-equilibration of putative compound-ATAD2 complexes. Subsequently, 3 μl of a 1.67-fold concentrated solution containing Ac-H4 peptide (83.5 nM=50 nM final concentration) and TR-FRET detection reagents [16.7 nM Anti-GST-XL665 (Cisbio), =10 nM final concentration and 4.17 nM Lance EU W-1024 Streptavidin Europium Chelate (Perkin-Elmer)=2.5 nM final concentration were dispensed into the plates.
The mixture was further incubated in the dark for 1 hour at 22° C. Finally the inhibition of the formation of ATAD2/Ac-H4 complexes was assessed by measurement of the resonance energy transfer from the Streptavidin-Eu-Chelate to the anti-GST-XL665 antibody present in the reaction. To this end, the fluorescence emissions at 622 nm and 665 nm after excitation at 337 nm were measured in a TR-FRET reader, e.g. a Rubystar or Pherastar (both from BMG Lab Technologies) or a Viewlux (Perkin-Elmer) and the ratio of the emissions at 665 nm and at 622 nm was taken as indicator for the amount of ATAD2/Ac-H4 complexes in equilibrium.
The data were normalized using two sets of control wells (16 each). The first accounted for 100% ATAD2/Ac-H4 binding (0% inhibition), and contained all reaction components but DMSO instead of inhibitors. The second represented 0% ATAD2/Ac-H4 binding (100% inhibition), and included all assay components except ATAD2. IC50 values were calculated by fitting the normalized inhibition data to a 4-parameter logistic equation using either Screener software (Genedata) or a Bayer-proprietary analysis software.
For orientation: TR-FRET usually uses a lanthanide donor and a delayed reading to cut background.
For `Cc1ccc([C@@H](C)NCc2ccc(-c3ccc(Cl)c(C(=O)N[C@@H](CNC4CCN(Cc5ccccc5)CC4)Cc4ccc(C#N)cc4)c3)o2)cc1` [Example 59], the IC50 is 625 nM.

Take `Cc1ccc([C@@H](C)NCc2ccc(-c3cc(F)c(Cl)c(C(=O)N[C@@H](CO)Cc4ccc(C#N)cc4)c3)o2)cc1` [Example 77, 2-chloro-N-[(2R)-1-(4-cyanophenyl)-3-hydroxypropan-2-yl]-3-fluoro-5-[5-({[(1R)-1-(4-methylphenyl)ethyl]amino}methyl)-2-furyl]benzamide]: the half-maximal inhibitory concentration (IC50) came to 598 nM.

Turning to `Cc1ccc([C@@H](C)NCc2ccc(-c3ccc(Cl)c(C(=O)N[C@@H](CN[C@H]4CC[C@@H](N)CC4)Cc4ccc(C#N)cc4)c3)o2)cc1` (single isomer, unassigned) [Example 72], the IC50 amounted to 138 nM.

For `Cc1ccc([C@@H](C)NCc2ccc(-c3ccc(Cl)c(C(=O)N[C@@H](CNCc4ccccc4)Cc4ccc(C#N)cc4)c3)o2)cc1` [Example 60], the IC50 turned out to be 1900 nM.

As for `Cc1ccc([C@@H](C)NCc2ccc(-c3ccc(Cl)c(C(=O)N[C@@H](CC(=O)N4CCOCC4)Cc4ccc(C#N)cc4)c3)o2)cc1` [Example 10, 2-chloro-N-[(2R)-1-(4-cyanophenyl)-4-(morpholin-4-yl)-4-oxobutan-2-yl]-5-[5-({[(1R)-1-(4-methylphenyl)ethyl]amino}methyl)-2-furyl]benzamide], the IC50 turned out to be 674 nM.

Turning to `Cc1ccc([C@@H](C)NCc2ccc(-c3ccc(Cl)c(C(=O)N[C@@H](CO)Cc4ccc(C(N)=O)cc4)c3)o2)cc1` [Example 48, N-[(2R)-1-(4-carbamoylphenyl)-3-hydroxypropan-2-yl]-2-chloro-5-[5-({[(1R)-1-(4-methylphenyl)ethyl]amino}methyl)-2-furyl]benzamide], the IC50 stood at 1080 nM.

`Cc1ccc([C@@H](C)NCc2ccc(-c3ccc(Cl)c(C(=O)N[C@H](Cc4ccc(C#N)cc4)CN(C)C)c3)o2)cc1` [Example 24, 2-chloro-N-[(2R)-1-(4-cyanophenyl)-3-(dimethylamino)propan-2-yl]-5-[5-({[(1R)-1-(4-methylphenyl)ethyl]amino}methyl)-2-furyl]benzamide]: the IC50 stood at 598 nM.

Turning to `Cc1ccc([C@@H](C)NCc2ccc(-c3ccc(Cl)c(C(=O)N[C@@H](CO)Cc4ccc(C#N)c(C)c4)c3)o2)cc1` [Example 37, 2-chloro-N-[(2R)-1-(4-cyano-3-methylphenyl)-3-hydroxypropan-2-yl]-5-[5-({[(1R)-1-(4-methylphenyl)ethyl]amino}methyl)-2-furyl]benzamide], the IC50 was determined as 443 nM.

For `Cc1ccc([C@@H](C)NCc2ccc(-c3ccc(Cl)c(C(=O)N[C@@H](CNC4CCNCC4F)Cc4ccc(C#N)cc4)c3)o2)cc1` (stereo partly drawn) [Example 73], the IC50 was determined as 132 nM.

As for `Cc1ccc([C@@H](C)NCc2ccc(-c3ccc(Cl)c(C(=O)N[C@@H](CO)Cc4ccc(C#N)cc4N)c3)o2)cc1` [Example 41, N-[(2R)-1-(2-amino-4-cyanophenyl)-3-hydroxypropan-2-yl]-2-chloro-5-[5-({[(1R)-1-(4-methylphenyl)ethyl]amino}methyl)-2-furyl]benzamide], the IC50 turned out to be 759 nM.

With `Cc1ccc([C@@H](C)NCc2ccc(-c3ccc(Cl)c(C(=O)N[C@@H](CO)Cc4cc(F)c(C#N)cc4C)c3)o2)cc1` [Example 38, 2-chloro-N-[(2R)-1-(4-cyano-5-fluoro-2-methylphenyl)-3-hydroxypropan-2-yl]-5-[5-({[(1R)-1-(4-methylphenyl)ethyl]amino}methyl)-2-furyl]benzamide], the IC50 came out at 365 nM.

As to `CNC(=O)C[C@@H](Cc1ccc(C#N)cc1)NC(=O)c1cc(-c2ccc(CNC(C)(C)c3ccccc3)o2)ccc1Cl` [Example 93], the IC50 came out at 7690 nM.

`COc1cc(Cl)c(C(=O)N[C@@H](CN)Cc2ccc(C#N)c(C)c2)cc1-c1ccc(CN[C@H](C)c2ccc(C)cc2)o1` [Example 84, N-[(2R)-1-amino-3-(4-cyano-3-methylphenyl)propan-2-yl]-2-chloro-4-methoxy-5-[5-({[(1R)-1-(4-methylphenyl)ethyl]amino}methyl)-2-furyl]benzamide]: the IC50 turned out to be 270 nM.

Consider `Cc1ccc([C@@H](C)NCc2ccc(-c3ccc(Cl)c(C(=O)N[C@@H](CNCC(C)C)Cc4ccc(C#N)cc4)c3)o2)cc1` [Example 61], for which the concentration for half-maximal inhibition (IC50) amounted to 798 nM.

In the case of `CNC(=O)[C@@H](Cc1ccc(C#N)cc1)NC(=O)c1cc(-c2ccc(CN[C@H](C)c3ccc(C)cc3)o2)ccc1Cl` [Example 5, Nα-{2-chloro-5-[5-({[(1R)-1-(4-methylphenyl)ethyl]amino}methyl)furan-2-yl]benzoyl}-4-cyano-N-methyl-D-phenylalaninamide], the half-maximal inhibitory concentration (IC50) worked out at 1890 nM.

As for `CC(C)(NCc1ccc(-c2ccc(Cl)c(C(=O)NC(Cc3ccc(C#N)cc3)C(N)=O)c2)o1)c1ccc(Cl)cc1` (stereo not drawn) [Example 95], the IC50 came out at 2820 nM.

Take `COC(=O)c1ccc(C[C@H](CO)NC(=O)c2cc(-c3ccc(CN[C@H](C)c4ccc(C)cc4)o3)ccc2Cl)cc1` [Example 51, methyl 4-[(2R)-2-({2-chloro-5-[5-({[(1R)-1-(4-methylphenyl)ethyl]amino}methyl)-2-furyl]benzoyl}amino)-3-hydroxypropyl]benzoate]: the concentration for half-maximal inhibition (IC50) amounted to 810 nM.

`COc1cc(Cl)c(C(=O)N[C@@H](CN[C@H]2CC[C@@H](N)CC2)Cc2ccc(C#N)c(C)c2)cc1-c1ccc(CN[C@H](C)c2ccc(C)cc2)o1` [Example 88, N-[(2R)-1-[(4-aminocyclohexyl)amino]-3-(4-cyano-3-methylphenyl)propan-2-yl]-2-chloro-4-methoxy-5-[5-({[(1R)-1-(4-methylphenyl)ethyl]amino}methyl)-2-furyl]-benzamide]: the IC50 is 128 nM.

Turning to `Cc1ccc([C@@H](C)NCc2ccc(-c3ccc(Cl)c(C(=O)N[C@@H](CC(=O)N4CCN(C)CC4)Cc4ccc(C#N)cc4)c3)o2)cc1` [Example 11, 2-chloro-N-[(2R)-1-(4-cyanophenyl)-4-(4-methylpiperazin-1-yl)-4-oxobutan-2-yl]-5-[5-({[(lR)-1-(4-methylphenyl)ethyl]amino}methyl)-2-furyl]benzamide], the IC50 was determined as 822 nM.

For `CNC(=O)C[C@@H](Cc1ccc(C#N)cc1)NC(=O)c1ccc(C#N)c(-c2ccc(CN[C@H](C)c3ccc(C)cc3)o2)c1` [Example 91], the half-maximal inhibitory concentration (IC50) was 13400 nM.

In the case of `Cc1ccc([C@@H](C)NCc2ccc(-c3ccc(Cl)c(C(=O)N[C@H](Cc4ccc(C#N)cc4)CN4CCOCC4)c3)o2)cc1` [Example 22, 2-chloro-N-[(2R)-1-(4-cyanophenyl)-3-(morpholin-4-yl)propan-2-yl]-5-[5-({[(1R)-1-(4-methylphenyl)ethyl]amino}methyl)-2-furyl]benzamide], the IC50 was 854 nM.

As for `Cc1ccc([C@@H](C)NCc2ccc(-c3ccc(Cl)c(C(=O)N[C@H]4CNCC[C@H]4c4ccc(C#N)cc4)c3)o2)cc1` (stereo in doubt) [Example 76, Cis-chloro-N-[4-(4-cyanophenyl)piperidin-3-yl]-5-[5-({[(1R)-1-(4-methylphenyl)-ethyl]amino}methyl)-2-furyl]benzamide], the 50% inhibitory concentration (IC50) turned out to be 441 nM.

For the molecule `CNC(=O)C[C@@H](Cc1ccccc1)NC(=O)c1cc(-c2ccc(CN[C@H](C)c3ccc(C)cc3)o2)ccc1Cl` [Example 92], the IC50 turned out to be 8370 nM.

As to `Cc1ccc([C@@H](C)NCc2ccc(-c3ccc(Cl)c(C(=O)N[C@@H](CCO)Cc4ccc(C#N)cc4)c3)o2)cc1` [Example 13, 2-chloro-N-[(2R)-1-(4-cyanophenyl)-4-hydroxybutan-2-yl]-5-[5-({[(1R)-1-(4-methylphenyl)ethyl]amino}methyl)-2-furyl]benzamide], the IC50 worked out at 386 nM.
